Results from ChEMBL document CHEMBL1201862, “PubChem BioAssay data set” (2004).
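48-hour exposure; five concentrations; linearly interpolated endpoints. The concentration for 50% growth inhibition is given as GI50.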 Calls of active or inactive are those of the source. Cut-off read from the data, not from the text of the source: active = GI50 up to about 1.1 µM and inactive = higher.

How the values were obtained:
Assay in all cases: NCI anticancer screen, dose series, 48 h
COLO 205 = tested on: COLO 205
DLD-1 = tested on: DLD-1
DMS-114 = tested on: DMS-114
DU-145 = tested on: DU-145
EKVX = tested on: EKVX
HOP-18 = tested on: HOP-18
MCF7 = tested on: MCF7
MDA-MB-231 = tested on: MDA-MB-231
MDA-MB-435 = tested on: MDA-MB-435
Malme-3M = tested on: Malme-3M
NCI-H226 = tested on: NCI-H226
NCI-H460 = tested on: NCI-H460
NCI-H522 = tested on: NCI-H522
NCI/ADR-RES = tested on: NCI/ADR-RES
OVCAR-3 = tested on: OVCAR-3
RXF 393 = tested on: RXF 393
SNB-78 = tested on: SNB-78
T47D = tested on: T47D
UACC-257 = tested on: UACC-257
UO-31 = tested on: UO-31

Measured: GI50

COc1cc(/C=C/c2ccc(C)cc2)cc(OC)c1OC
inactive: COLO 205 3.16 µM | DLD-1 4.06 µM | DMS-114 5.9 µM | DU-145 3.01 µM | EKVX 4.7 µM | HOP-18 11.4 µM | MCF7 3.46 µM | MDA-MB-231 5 µM | MDA-MB-435 1.14 µM | Malme-3M 4.35 µM | NCI-H226 4.29 µM | NCI-H460 3.85 µM | NCI-H522 2.25 µM | NCI/ADR-RES 2.07 µM | OVCAR-3 2.48 µM | RXF 393 4.42 µM | SNB-78 2.14 µM | T47D 4.1 µM | UACC-257 6.97 µM | UO-31 4.49 µM

COc1cc(C2C(Cl)C(=O)N2NC(=O)Cc2ccccc2)cc(Br)c1O (configuration not stated)
inactive: COLO 205 > 100 µM | DLD-1 86.9 µM | DMS-114 45 µM | EKVX 94.8 µM | HOP-18 71.6 µM | Malme-3M > 100 µM | NCI-H226 > 100 µM | NCI-H460 80.9 µM | NCI-H522 56 µM | OVCAR-3 61 µM | RXF 393 92.3 µM | SNB-78 > 100 µM | UACC-257 > 100 µM | UO-31 64.9 µM

C/C(=N\NC(=N)N)C(CN(C)C)C(c1ccccc1)c1c(O)c2ccccc2oc1=O (configuration not stated)
inactive: COLO 205 > 100 µM | DLD-1 > 100 µM | DMS-114 > 100 µM | DU-145 > 100 µM | EKVX > 100 µM | HOP-18 > 100 µM | MCF7 > 100 µM | MDA-MB-231 > 100 µM | MDA-MB-435 > 100 µM | Malme-3M > 100 µM | NCI-H226 > 100 µM | NCI-H460 > 100 µM | NCI-H522 > 100 µM | NCI/ADR-RES > 100 µM | OVCAR-3 > 100 µM | SNB-78 > 100 µM | T47D 4.62 µM | UACC-257 > 100 µM | UO-31 > 100 µM

CC(=O)Nc1ccc(/C=c2\sc3nnc(-c4cccnc4)n3c2=O)cc1
inactive: COLO 205 15.4 µM | DLD-1 17.3 µM | DMS-114 17.9 µM | EKVX 18.9 µM | HOP-18 19.1 µM | Malme-3M 19.1 µM | NCI-H226 49.7 µM | NCI-H460 16.3 µM | NCI-H522 16.1 µM | OVCAR-3 17.8 µM | RXF 393 22.3 µM | SNB-78 34.4 µM | UACC-257 21.8 µM | UO-31 12 µM
